The text below walks through data of PMC12368606 (2025).

Assay [1] deals with Seq1s (RNA, hairpin) ACCGUGACGGGCCUUUUUGGCUAUACGCGGU
As to the kind of experiment: UV thermal melting. The conditions noted are these: 10 μM NA; Tm 66.9 ± 2.0 to 72.1 ± 1.5 °C.

The test system is the same in assay [2]. As to the kind of experiment: CSI-TOF mass spectrometry. The conditions noted are these: 40 μM NA, 5 μM RNA.
For assay [3], the system named is Seq1s-4U (RNA, hairpin) ACCGUGACGGGCCUUUUGGCUAUACGCGGU
The assay can be described thus: NMR solution structure and titration. The conditions noted are these: phosphate buffer, 5% D2O for titration.

One may read the ΔTm as the change in melting temperature against a reference sample. `Cc1ccc2ccc(NC(=O)CCNCCC(=O)NCc3ccc4ccc(=O)[nH]c4n3)nc2n1`: the ΔTm in assay [1] is 5.2 °C. The binding entry in assay [2] and in assay [3] was “yes” throughout.
